What was measured:
Type in all cases: in vivo
[1] = system: Diabrotica undecimpunctata howardi, eggs-southern corn rootworm (SCR-Eggs); assay: Southern corn rootworm eggs (SCR-Eggs) treated diet test; design: key: 0 = no effect; 1 = 10-25% kill; 2 = 26-35% kill; 3 = 36-45% kill; 4 = 46-55% kill; 5 = 56-65% kill; 6 = 66-75% kill; 7 = 76-85% kill; 8 = 86-99% kill; 9 = 100% kill; conditions: mortality after 7 days
Outline: (§1)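 Eggs of S. eridania or D. undecimpunctata howardi were set on artificial diet pretreated with test solution (10,000 ppm stock in 35% aqueous acetone, water dilutions) and dried. Wells were sealed with vented clear covers, and mortality was scored at day 7.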

[2] = system: Diabrotica virgifera virgifera Leconte, 2nd instar western corn rootworm (WCR); assay: Western corn rootworm (WCR) soil test; design: key: 0 = no effect; 1 = 10-25% kill; 2 = 26-35% kill; 3 = 36-45% kill; 4 = 46-55% kill; 5 = 56-65% kill; 6 = 66-75% kill; 7 = 76-85% kill; 8 = 86-99% kill; 9 = 100% kill
Outline: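 Ten 2nd-instar rootworm larvae are placed in jars of moist soil with millet seed and talc treated with 1.25 mg active ingredient (roughly 50 kg/ha) from a 35% acetone-in-water solution. After 5 days mortality is scored, counting missing larvae as dead.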

[3] = system: Spodoptera eridania, eggs-southern armyworm (SAW-Eggs); assay: Southern armyworm eggs (SAW-Eggs) treated diet test; design: key: 0 = no effect; 1 = 10-25% kill; 2 = 26-35% kill; 3 = 36-45% kill; 4 = 46-55% kill; 5 = 56-65% kill; 6 = 66-75% kill; 7 = 76-85% kill; 8 = 86-99% kill; 9 = 100% kill; conditions: mortality after 7 days
Outline: as §1

[4] = system: Aphis gossypii, cotton aphid (CA); assay: Cotton aphid (CA) cotyledon dip test; design: key: 0 = no effect; 1 = 10-25% kill; 2 = 26-35% kill; 3 = 36-45% kill; 4 = 46-55% kill; 5 = 56-65% kill; 6 = 66-75% kill; 7 = 76-85% kill; 8 = 86-99% kill; 9 = 100% kill; conditions: mortality after 5 days
Outline: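 Mortality was scored 5 days after dipping aphid-infested cotyledons, colonised overnight from a transfer leaf, into water dilutions of a 35% acetone/water compound solution.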

[5] = system: C. elegans (Bristol strain); assay: Evaluation of test compounds against C. elegans (motility, 96-well plate); design: key: 9=complete kill in 4 hours; 8=complete kill in 24 hours; 7=markedly reduced motility in approximately 95% of worms in 24 hours; 0=normal motility, same as controls; conditions: motility at 4 and 24 hours
Outline: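 Activity is a semi-quantitative visual score of adult and larval movement, read at 4 h and 24 h post-immersion at 20 °C after gentle tapping. Worms were suspended in Na buffer in wells where compound, dissolved in 80% acetone, had been evaporated.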

[6] = system: Tetranychus urticae (OP-resistant strain), 2-spotted spider mite (TSM); assay: 2-spotted spider mite (TSM) plant dip test; design: key: 0 = no effect; 1 = 10-25% kill; 2 = 26-35% kill; 3 = 36-45% kill; 4 = 46-55% kill; 5 = 56-65% kill; 6 = 66-75% kill; 7 = 76-85% kill; 8 = 86-99% kill; 9 = 100% kill; conditions: mortality after 2 days
Outline: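 Mortality counted 2 days after a 3 s agitated dip of infested Sieva lima bean plants. Compound came from a 10,000 ppm stock in 35% aqueous acetone, with further dilution in water. Each primary leaf carried about 100 OP-resistant mites, allowed to settle ~2 h before dipping.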

[7] = system: M. incognita (Root Knot Nematode) larvae; assay: Evaluation of test compounds against M. incognita larvae in microtiter plate wells (movement score); conditions: larvae scored for movement after 20-24 hours; further: key: A score of '9' indicates inactive worms with a straight, sticklike morphology; A score of '8' indicates inactive worms with a limp, curled or curved morphology; A score of '7' indicates dead/paralyzed worms after 72 hours
Outline: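 Scoring is by larval movement: dead or paralyzed worms count as positive, and a "7" means dead/paralyzed at 72 hours. Freshly hatched root-knot larvae (50-65 per well) in buffered S Medium were incubated with compounds under plate sealers for 20-24 h before the first read.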

[8] = system: Spodoptera eridania, 2nd instar larvae, southern armyworm (SAW); assay: Southern armyworm (SAW) leaf dip test; design: key: 0 = no effect; 1 = 10-25% kill; 2 = 26-35% kill; 3 = 36-45% kill; 4 = 46-55% kill; 5 = 56-65% kill; 6 = 66-75% kill; 7 = 76-85% kill; 8 = 86-99% kill; 9 = 100% kill
Outline: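 Ten 2nd instar caterpillars feed on a Sieva lima bean leaf that was dipped 3 seconds in test solution (stock 10,000 ppm in 35% acetone/water, water-diluted). Five days later, larvae are assessed for death, feeding reduction or abnormal molting.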

Compound | SCR Eggs (1000 ppm) rating [1] | WCR (50 ppm) rating [2] | SAW Eggs (300 ppm) rating [3] | CA (300 ppm) rating [4] | Rating Against C. elegans (150 ppm) [5] | TSM (300 ppm) rating [6] | M. incognita (150 ppm) score [7] | SAW (300 ppm) rating [8]
COC(=O)CSC(C[N+](=O)[O-])c1ccc2c(c1)OCO2 (centres unmarked) [Example 18] | 0 | 0 | 0 | 9 (9 = 100% kill) | 9 | 0 | 9 | 0
CCOC(=O)CSC(C[N+](=O)[O-])c1ccc2c(c1)OCO2 (centres unmarked) [Example 19] | 0 | 3 (3 = 36-45% kill) | 0 | 0 | 9 | 0 | 9 | 0
CCCCOC(=O)CSC(C[N+](=O)[O-])c1ccc2c(c1)OCO2 (centres unmarked) [Example 20] | 0 | 0 | 0 | 0 | 8 | 0 | 9 | 0
CC(C)CCCCCOC(=O)CSC(C[N+](=O)[O-])c1ccc2c(c1)OCO2 (centres unmarked) [Example 21] | 0 | 0 | 0 | 7 (7 = 76-85% kill) | 0 | 0 | 8 | 0
CCCCC(CC)COC(=O)CSC(C[N+](=O)[O-])c1ccc2c(c1)OCO2 (centres unmarked) [Example 22] | 0 | 0 | 0 | 0 | 0 | 0 | 0 | 0
O=[N+]([O-])CC(SCc1ccccc1)c1ccc2c(c1)OCO2 (centres unmarked) [Example 23] | 9 (9 = 100% kill) | 4 (4 = 46-55% kill) | 9 (9 = 100% kill) | 4 (4 = 46-55% kill) | 7 | 0 | 8 | 8 (8 = 86-99% kill)
CCCSC(C[N+](=O)[O-])c1ccc2c(c1)OCO2 (centres unmarked) [Example 24] | 0 | 0 | 0 | 0 | 8 | 0 | 9 | 0
COC(=O)CSC(C[N+](=O)[O-])c1ccc(OC)cc1 (centres unmarked) [Example 47] | 0 | 4 (4 = 46-55% kill) | 0 | 0 | 9 | 4 (4 = 46-55% kill) | 9 | 0
CCOC(=O)CSC(C[N+](=O)[O-])c1ccc(OC)cc1 (centres unmarked) [Example 48] | 0 | 0 | 0 | 0 | 9 | 0 | 9 | 0
CCCCOC(=O)CSC(C[N+](=O)[O-])c1ccc(OC)cc1 (centres unmarked) [Example 49] | 0 | 0 | 0 | 0 | 9 | 0 | 9 | 0
COc1ccc(C(C[N+](=O)[O-])SCC(=O)OCCCCCC(C)C)cc1 (centres unmarked) [Example 50] | 0 | 0 | 9 (9 = 100% kill) | 0 | 7 | 0 | 0 | 0
CCCCC(CC)COC(=O)CSC(C[N+](=O)[O-])c1ccc(OC)cc1 (centres unmarked) [Example 51] | 8 (8 = 86-99% kill) | 4 (4 = 46-55% kill) | 9 (9 = 100% kill) | 0 | 0 | 0 | 0 | 0
COc1ccc(C(C[N+](=O)[O-])SCc2ccccc2)cc1 (centres unmarked) [Example 52] | 0 | 4 (4 = 46-55% kill) | 0 | 0 | 9 | 0 | 9 | 0
CCCSC(C[N+](=O)[O-])c1ccc(OC)cc1 (centres unmarked) [Example 53] | 0 | 0 | 0 | 0 | 9 | 0 | 9 | 4 (4 = 46-55% kill)
C=CCSC(C[N+](=O)[O-])c1ccc(OC)cc1 (centres unmarked) [Example 54] | 0 | 5 (5 = 56-65% kill) | 0 | 0 | 9 | 0 | 9 | 0
COC(=O)CSC(C[N+](=O)[O-])c1cccc(OC)c1 (centres unmarked) [Example 55] | 0 | 0 | 0 | 0 | 8 | 0 | 9 | 4 (4 = 46-55% kill)
CCOC(=O)CSC(C[N+](=O)[O-])c1cccc(OC)c1 (centres unmarked) [Example 56] | 0 | 0 | 0 | 0 | 8 | 5 (5 = 56-65% kill) | 9 | 0
CCCCOC(=O)CSC(C[N+](=O)[O-])c1cccc(OC)c1 (centres unmarked) [Example 57] | 0 | 0 | 0 | 0 | 7 | 0 | 9 | 0
COc1cccc(C(C[N+](=O)[O-])SCC(=O)OCCCCCC(C)C)c1 (centres unmarked) [Example 58] | 0 | 0 | 0 | 0 | 0 | 0 | 0 | 0

Source: patent US6358883B1, “Pesticidal and parasiticidal use of 1-aryl-1-(substituted thio, sulfinyl and sulfonyl)-2-nitroethane compounds” (American Cyanamid Company, priority 1998, dated 2002)
